{"source": "patent US7981878B2", "about": "“Tumor treatment with gliotoxin derivatives” (priority 2005, dated 2011)", "tested_on": "518A2 melanoma xenograft", "experiment": "518A2 melanoma nude mouse xenograft model", "type": "in vivo", "text": "FIG. 9: Effects of gliotoxin in a 518A2 melanoma nude mouse xenograft model. 518 A2 cells (9×10^6) were inoculated into the lower right and left flank of each mouse. […] The flexible dose and treatment schedule of each group are given in the squares next to each group in the figure. All data are given as mean tumour volumes ±95% CI. The dotted arrows indicate a significant decrease of tumour volume (Wilcoxon matched pairs test, P<0.05) within Group 2 and Group 4 three days after application of 5 mg-0-2.5 mg of gliotoxin. It was shown that even at late administrations with progressed tumours gliotoxin administration is effective group 4 (ip administration at day 25).\nPathogen-free, 4-6 week old, female athymic nude mice (Harlan Winkelmann, Borchen, Germany) were housed under sterile conditions and treated according to the regulations of the local animal welfare committee. Hundred μl of a tumour cell suspension in DPBS containing 9×10^6 518A2 cells were inoculated into the lower right and left flank of each mouse. When mean tumour volume reached approximately 75 mm^3 (based on caliper measurements), mice (n=8/control group, n=6/treatment group) were randomly assigned to treatment groups and received one of the following treatment regimens:\nControl (2% DMSO), Group 1 (start dose 1 mg/kg i.p.), Group 2 (start dose 5 mg/kg i.v.), and Group 3 (start dose 5 mg ip) and Group 4 (start dose 7 mg s.c.).\nFlexible explorative dosing schedule was used in this in vivo trial: At baseline, all treatment groups received their respective start dose to estimate immediate toxicity of gliotoxin. Beginning with day 4:\nGroup 1 received 1 mg/kg daily including day 19.\nGroup 2 received 5 mg i.v. at day 4 and day 7 followed by 5 mg-0-2.5 mg ip at day 11\nGroup 3 received 5 mg/kg i.p. once weakly including day 18.\nGroup 4 remained untreated until day 25 and received then 5 mg-0-2.5 mg once only. The trial was stopped when control mice reached a mean tumour volume of 1000 mm^3.\nIn the xenograft melanoma model, tumour volume of each group is given as mean±95% confidence interval. The anti-tumour effect of gliotoxin was described as tumour volume of treatment group/tumour volume of control group×100 (T/C)."}
{"smiles": "CN1C(=O)[C@]23CC4=CC=C[C@H](O)[C@H]4N2C(=O)[C@@]1(CO)SS3", "note": "[gliotoxin, [3R-(3α,5aβ,6β,10aα)]-2,3,5a,6-tetrahydro-6-hydroxy-3-(hydroxymethyl)-2-methyl-10H-3,10a-epi-dithiopyrazino[1,2-a]indol-1,4-dion]", "values": [{"measurement": "T/C (tumour volume of treatment group/control group×100)", "setting": "Group 1, 1 mg/kg i.p. daily until day 19, day 21", "result": 37, "unit": "%"}, {"measurement": "T/C (tumour volume of treatment group/control group×100)", "setting": "Group 2, 3×5 mg iv within 7 days then 1×5 mg-0-2.5 mg ip day 11, day 21", "result": 32, "unit": "%"}, {"measurement": "mean tumour volume", "setting": "Group 2, day 11 (before application of 5 mg-0-2.5 mg)", "result": 115, "unit": "mm^3"}, {"measurement": "mean tumour volume", "setting": "Group 2, day 15 (after application of 5 mg-0-2.5 mg at day 11)", "result": 83, "unit": "mm^3"}, {"measurement": "T/C (tumour volume of treatment group/control group×100)", "setting": "Group 3, 5 mg/kg i.p. weekly until day 18, day 21", "result": 49, "unit": "%"}, {"measurement": "T/C (tumour volume of treatment group/control group×100)", "setting": "Group 4, 5 mg-0-2.5 mg once at day 25, day 32", "result": 23, "unit": "%"}, {"measurement": "toxicity after subcutaneous application", "setting": "Group 4, 7 mg/kg s.c. start dose, nude mice", "result": "severe local toxicity"}, {"measurement": "mean tumour volume", "setting": "Group 4, day 25 (before application of 5 mg-0-2.5 mg)", "result": 576, "unit": "mm^3"}, {"measurement": "mean tumour volume", "setting": "Group 4, day 28 (after application of 5 mg-0-2.5 mg at day 25)", "result": 218, "unit": "mm^3"}, {"measurement": "T/C (tumour volume of treatment group/control group×100)", "setting": "Group 4, single 7 mg/kg s.c. start dose, then untreated, day 25", "result": 92, "unit": "%"}]}
